Assay results published in US20220354870A1, “READY-TO-USE BUPIVISONE PLUS LIQUID FORMULATION” (LEITERS, Inc., priority 2021, published 2022).
“Also recorded” adds a separate entry of the source. Where a name gives a salt, the structure may show the parent alone.

Columns and labels:
Type in all cases: physicochemical
[1] = Stability testing of syringed formulation with methylparaban (Example 2); settings: stability study
Method: (§1) The samples were produced using an approved batch record and shipped to contract laboratories for stability testing. The samples were stored according to ICH Q1A (R2) as follows: • Long term: Refrigerated (5° C. ±3° C.) in Horizontal Orientation, Protected from Light • Accelerated Condition: Room Temperature (25° C. ±2° C. and 40% RH ±5% RH) Horizontal Orientation, Protected from Light
(§2) The method development procedure for the strength and potency aligned with the defined criteria in USP <1225> for a stability indicating method. The procedures used for microbiology testing were based on method suitability performed at T0.

[2] = Potency after room temperature storage of syringe in nitrogen-flushed hermetically sealed pouch (Example 4); settings: formulation of Table 4 (no preservative) in syringe, hermetically sealed pouch flushed with nitrogen
Method: A preliminary evaluation of the feasibility of packaging syringes was performed. Hermetically sealed pouch containing a syringe with the exemplary formulation from Table 4 was flushed with nitrogen to reduce oxygen levels.

[3] = Stability testing of syringed formulation prepared without preservative (Example 3); settings: stability study
Method: The formulations without a preservative were prepared following the method described in Example 1 except no preservative(s) was used.
as §1, §2

Impurities of the active versus FDA/ICH guidelines ([1]; hydrochloride)	Impurities of the active versus FDA/ICH guidelines ([1]; listed as Bupivicaine, hydrochloride)	Structure (SMILES)	Potency (% label claim) after storage at room temperature for 90 days [2]	Impurities of the active versus limits of ICH guidelines, FDA and in-house SOP [3]	Impurities of the active versus FDA/ICH guidelines [1]
met FDA/ICH Guidelines	met the acceptable limits	CCCCN1CCCCC1C(=O)Nc1c(C)cccc1C (stereo not shown) [Bupivacaine HCl, bupivacaine hydrochloride]	97.2%	met the acceptable limits	
		CNC[C@H](O)c1ccc(O)c(O)c1 [Epinephrine, epinephrine]	104.2%	met the acceptable limits	met FDA/ICH Guidelines; also recorded: met the acceptable limits
